Values of other authors as cited in patent US7744929B2, “Botanical drug compositions for treatments of liver and immunological disorders” (priority 2003, dated 2010).

System: HCV

NC(=O)c1ncn([C@@H]2O[C@H](CO)[C@@H](O)[C@H]2O)n1 [ribavirin]
increase of the sustained response rate (ribavirin added to interferon): two- to three fold
effect on HCV (ribavirin by itself): little effect
